According to ChEMBL document CHEMBL3244164, “Synthesis and analgesic activity of 1,3-dihydro-3-(substituted phenyl)imidazo[4,5-b]pyridin-2-ones and 3-(substituted phenyl)-1,2,3-triazolo[4,5-b]pyridines” (J Med Chem, 1978):

Legend:
Format in all cases: functional
Rattus norvegicus [1] = assay: Analgesic activity in Sprague-Dawley rat brewer's yeast treated foot assessed as response threshold at 16 to 32 mg/kg, po; settings: dose mg/kg 16-32
Rattus norvegicus [2] = assay: Analgesic activity in Sprague-Dawley rat normal foot assessed as response threshold at 32 mg/kg, po
Rattus norvegicus [3] = assay: Analgesic activity in Sprague-Dawley rat brewer's yeast treated foot assessed as response threshold at 8 to 16 mg/kg, po; settings: dose mg/kg 8-16
Rattus norvegicus [4] = assay: Analgesic activity in Sprague-Dawley rat brewer's yeast treated foot assessed as response threshold at 32 mg/kg, po

SMILES | Activity (Rattus norvegicus [1]) | Activity (Rattus norvegicus [2]) | Activity (Rattus norvegicus [3]) | Activity (Rattus norvegicus [4])
Nc1ccc(-n2c(=O)[nH]c3cccnc32)cc1 | >25 mm | <40 mm |  | 
CCCn1c(=O)n(-c2ccccc2)c2ncccc21 | >25 mm | 40 mm |  | 
c1cnc2c(c1)nnn2-c1ccc2c(c1)OCCO2 | >25 mm | <40 mm |  | 
CCn1c(=O)n(-c2ccc3c(c2)OCO3)c2ncccc21 | >25 mm | <40 mm |  | 
O=c1n(CO)c2cccnc2n1-c1ccc2c(c1)OCO2 | >25 mm | 40 mm |  | 
O=c1[nH]c2cccnc2n1-c1ccccc1Cl | >25 mm | <40 mm |  | 
Fc1ccccc1-n1nnc2cccnc21 |  | <40 mm | >25 mm | 
O=c1[nH]c2cccnc2n1-c1ccc2c(c1)OCCO2 |  | <40 mm |  | <25 mm
CN(C)c1ccc(-n2nnc3cccnc32)cc1 |  | <40 mm |  | <25 mm
Cc1oc2ccc(-n3c(=O)[nH]c4cccnc43)cc2c1C |  | <40 mm |  | <25 mm
CC1(C)Oc2ccc(-n3nnc4cccnc43)cc2O1 |  | <40 mm |  | <25 mm
CCC1(CC)Oc2ccc(-n3c(=O)[nH]c4cccnc43)cc2O1 |  | <40 mm |  | <25 mm
O=c1[nH]c2cccnc2n1-c1ccccc1 |  | 40 mm | >25 mm | 
COC(=O)c1cnc2c(c1)nnn2-c1ccc2c(c1)OCO2 |  | <40 mm |  | <25 mm
COc1cc(-n2nnc3cccnc32)cc(OC)c1OC |  | <40 mm |  | <25 mm
O=c1[nH]c2cccnc2n1-c1ccc2c(c1)COC2 |  | <40 mm |  | <25 mm
C=CCn1c(=O)n(-c2ccc(OC)c(OC)c2)c2ncccc21 |  | <40 mm |  | <25 mm
Nc1cnc2c(c1)[nH]c(=O)n2-c1ccccc1F |  | <40 mm |  | <25 mm
CCC(C)n1c(=O)n(-c2ccc3c(c2)OCO3)c2ncccc21 (centres undefined) |  | <40 mm |  | <25 mm
O=c1n(CCc2ccccc2)c2cccnc2n1-c1ccc2c(c1)OCO2 |  | <40 mm |  | <25 mm
CC(C)(C)Oc1nc2cccnc2n1-c1ccc2c(c1)OCO2 |  | <40 mm | >25 mm | 
O=C(O)c1cnc2c(c1)[nH]c(=O)n2-c1ccc2c(c1)OCO2 |  | <40 mm |  | <25 mm

SMILES | Activity (Rattus norvegicus [1]) | Activity (Rattus norvegicus [2]) | Activity (Rattus norvegicus [3]) | Activity (Rattus norvegicus [4])
Cc1cccc(C)c1-n1c(=O)[nH]c2cccnc21 |  | <40 mm |  | 25 mm
O=c1n(-c2ccc3c(c2)OCO3)c2ncccc2n1S(=O)(=O)c1ccc(F)cc1 |  | <40 mm |  | <25 mm
O=c1[nH]c2cccnc2n1-c1ccccc1F |  | <40 mm |  | 25 mm
O=c1n(-c2ccc3c(c2)OCO3)c2ncccc2n1C(F)(F)C(F)Cl (centres undefined) |  | <40 mm |  | <25 mm
C=CCn1c(=O)n(-c2ccc3c(c2)OCO3)c2ncncc21 |  | <40 mm |  | <25 mm
CC(C)Cn1c(=O)n(-c2ccc3c(c2)OCO3)c2ncccc21 | >25 mm | <40 mm |  | 
CCCCCCn1c(=O)n(-c2ccc3c(c2)OCO3)c2ncccc21 |  | <40 mm |  | 25 mm
CC(O)Cn1c(=O)n(-c2ccc3c(c2)OCO3)c2ncccc21 (centres undefined) | >25 mm | 40 mm |  | 
COc1cc(-n2c(=O)[nH]c3cccnc32)cc(OC)c1OC |  | <40 mm |  | <25 mm
C=CCn1c(=O)n(-c2cccc(C)n2)c2ncccc21 |  | <40 mm |  | <25 mm
Cc1c(Cl)cccc1-n1c(=O)[nH]c2cccnc21 |  | <40 mm |  | <25 mm
CC(C)c1ccccc1-n1c(=O)[nH]c2cccnc21 |  | <40 mm |  | <25 mm
C=CCn1c(=O)n(-c2ccc3c(c2)OCO3)c2ncccc21.CI |  | <40 mm |  | <25 mm
CC(=O)Oc1ccccc1C(=O)O [ASPIRIN] |  | <40 mm |  | 25 mm
COC(=O)c1cnc2c(c1)nnn2-c1ccccc1F |  | <40 mm |  | <25 mm
O=c1[nH]c2cccnc2n1Cc1ccc2c(c1)OCO2 |  | <40 mm |  | <25 mm
O=C(C1CC1)n1c(=O)n(-c2ccc3c(c2)OCO3)c2ncccc21 |  | <40 mm |  | <25 mm
C=C=Cn1c(=O)n(-c2ccc3c(c2)OCO3)c2ncccc21 |  | <40 mm |  | <25 mm
O=c1[nH]c2cccnc2n1-c1ccc(Cl)cc1 |  | <40 mm |  | <25 mm
C=CCn1c(=O)n(-c2ccc3c(c2)COCO3)c2ncccc21 |  | <40 mm |  | <25 mm
C=CCn1c(=O)n(-c2ccc(C)c(OC)c2)c2ncccc21 |  | <40 mm |  | <25 mm
N#Cc1ccccc1-n1nnc2cccnc21 |  | <40 mm |  | 25 mm

SMILES | Activity (Rattus norvegicus [1]) | Activity (Rattus norvegicus [2]) | Activity (Rattus norvegicus [3]) | Activity (Rattus norvegicus [4])
Cc1cc2c(cc1-n1nnc3cccnc31)OCO2 |  | <40 mm |  | <25 mm
O=C(O)Cn1c(=O)n(-c2ccc3c(c2)OCO3)c2ncccc21 |  | <40 mm |  | <25 mm
CCC1(CC)Oc2ccc(-n3nnc4cccnc43)cc2O1 |  | <40 mm |  | <25 mm
FC(F)(F)c1cccc(-n2nnc3cccnc32)c1 |  | <40 mm |  | 25 mm
C=CCn1c(=O)n(-c2cccc3c2CCCC3)c2ncccc21 |  | <40 mm |  | <25 mm
CC(C)Cc1ccc(-n2c(=O)[nH]c3cccnc32)cc1 |  | <40 mm |  | <25 mm
Fc1ccc(F)c(-n2nnc3cccnc32)c1 | >25 mm | <40 mm |  | 
c1cnc2c(c1)nnn2-c1ccncc1 |  | <40 mm |  | <25 mm
CCOC(=O)Cn1c(=O)n(-c2ccc3c(c2)OCO3)c2ncccc21 |  | <40 mm |  | <25 mm
c1cnc2c(c1)nnn2-c1ccc2c(c1)COCO2 |  | <40 mm |  | <25 mm
COc1cc(-n2nnc3cccnc32)ccc1C |  | <40 mm |  | <25 mm
COC(=O)c1cnc2c(c1)[nH]c(=O)n2-c1ccc2c(c1)OCO2 |  | <40 mm |  | <25 mm
CCOC(=O)c1cccc(-n2c(=O)[nH]c3cccnc32)c1 |  | <40 mm |  | <25 mm
Oc1ccccc1-n1nnc2cccnc21 |  | <40 mm |  | <25 mm
O=c1[nH]c2cncnc2n1-c1ccccc1F |  | <40 mm |  | <25 mm
O=C(O)c1ccc(-n2c(=O)[nH]c3cccnc32)cc1 |  | <40 mm |  | <25 mm
Cc1ccc(F)c(-n2c(=O)[nH]c3cccnc32)c1 |  | 40 mm |  | <25 mm
CCc1ccc(-n2c(=O)[nH]c3cccnc32)cc1 |  | <40 mm |  | <25 mm
O=c1[nH]c2cccnc2n1-c1cccc(Oc2ccccc2)c1 |  | <40 mm |  | <25 mm
Cc1ccc(-n2c(=O)[nH]c3cccnc32)c(C)c1 | >25 mm | <40 mm |  | 
C=CCn1c(=O)n(-c2cccc(Cl)c2C)c2ncccc21 |  | <40 mm |  | <25 mm
Clc1ccc(-n2nnc3cccnc32)cc1 |  | <40 mm |  | <25 mm

SMILES | Activity (Rattus norvegicus [1]) | Activity (Rattus norvegicus [2]) | Activity (Rattus norvegicus [3]) | Activity (Rattus norvegicus [4])
O=c1[nH]c2cc([N+](=O)[O-])cnc2n1-c1ccccc1F |  | <40 mm |  | <25 mm
Cc1c(Cl)cccc1-n1nnc2cccnc21 |  | <40 mm |  | <25 mm
CC1(C)Oc2ccc(-n3c(=O)[nH]c4cccnc43)cc2O1 |  | <40 mm |  | <25 mm
Cc1cccc(-n2nnc3cccnc32)n1 |  | <40 mm |  | <25 mm
CSCn1c(=O)n(-c2ccccc2)c2ncccc21 |  | <40 mm |  | 25 mm
N#Cc1cccc(-n2nnc3cccnc32)c1 |  | <40 mm |  | <25 mm
O=c1n(CC2CO2)c2cccnc2n1-c1ccc2c(c1)OCO2 (centres undefined) |  | <40 mm |  | <25 mm
COc1ccc(-n2c(=O)[nH]c3cccnc32)cc1OC |  | <40 mm |  | <25 mm
Fc1ccc(-n2nnc3cccnc32)cc1 |  | <40 mm |  | <25 mm
O=c1[nH]c2cccnc2n1-c1ccc(Cl)cc1Cl |  | <40 mm |  | 25 mm
Cc1ccc(F)c(-n2nnc3cccnc32)c1 |  | <40 mm |  | <25 mm
COc1cccc(-n2nnc3cccnc32)c1 |  | <40 mm |  | <25 mm
CC(C)=O.O=C(Cn1c(=O)n(-c2ccc3c(c2)OCO3)c2ncccc21)c1ccccc1 |  | 40 mm |  | <25 mm
O=c1[nH]c2ccccc2n1-c1ccc2c(c1)OCO2 |  | <40 mm |  | <25 mm
C#CCn1c(=O)n(-c2ccc3c(c2)OCO3)c2ncccc21 |  | <40 mm |  | <25 mm
Cc1oc2ccc(-n3nnc4cccnc43)cc2c1C |  | <40 mm |  | <25 mm
C=CCn1c(=O)n(-c2ccc3c(c2)CCC3)c2ncccc21 |  | <40 mm |  | <25 mm
Cc1cnc2c(c1)[nH]c(=O)n2-c1ccccc1F |  | <40 mm |  | 25 mm
CC(=O)OCn1c(=O)n(-c2ccc3c(c2)OCO3)c2ncccc21 |  | <40 mm |  | <25 mm
Cc1cnc2c(c1)nnn2-c1ccccc1F |  | <40 mm |  | <25 mm
COc1cccc(-n2c(=O)[nH]c3cccnc32)c1 |  | <40 mm |  | <25 mm
